Assay results taken from US12195427B2, “MASP-2 inhibitors and methods of use” (priority 2018, dated 2025).

Molecular target: MASP-2 CCP2-SP (Homo sapiens (Human), UniProt O00187)
Assay: MASP-2 co-crystallization, X-ray crystallography and structure analysis (H-bonds, van der Waals contacts);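 for Ligand-pharmacophore element distance, pharmacophore element C2: distance from averaged pharmacophore element to bound ligand; missing value means element absent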;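 for Ligand-pharmacophore element distance, pharmacophore element C3: distance from averaged pharmacophore element to bound ligand; missing value means element absent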;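 for Ligand-pharmacophore element distance, pharmacophore element C4: distance from averaged pharmacophore element to bound ligand; missing value means element absent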;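 for Ligand-pharmacophore element distance, pharmacophore element C5: distance from averaged pharmacophore element to bound ligand; missing value means element absent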
Design: van der Waals contact distance, MASP-2 HIS 483 atom CD2 / van der Waals contact distance, MASP-2 HIS 483 atom NE2 / van der Waals contact distance, SER 654 C to compound atom / van der Waals contact distance, SER 654 O to compound atom / van der Waals contact distance, TRP 655 C to compound atom / van der Waals contact distance, MASP-2 GLY 528 atom CA / van der Waals contact distance TRP 655 atom CZ3 / van der Waals contact distance TRP 655 atom N / van der Waals contact distance TRP 655 atom CE3 / van der Waals contact distance GLY 656 atom C / van der Waals contact distance GLY 656 atom CA / van der Waals contact distance GLY 656 atom O / van der Waals contact distance, MASP-2 TYR 607 atom CD1 / van der Waals contact distance, MASP-2 PRO 606 atom O / d(C3,CA1) / d(CA1,N1)2 / d(H4,O1) / d(H4,O2) / d(O1,O2) / d(CA1,O2) / d(CA6,O1) / d(CA6,O2) / d(CA1,C5) / d(O2,H3) / d(N2,C2) / d(CA5,N2) / d(N2,C4) / d(N2,C6) / d(N2,CA3) / d(N2,O3) / d(O4,H2): unit not given beside the values
Settings: for Ligand-pharmacophore element distance, pharmacophore element C2 / Ligand-pharmacophore element distance, pharmacophore element C3 / Ligand-pharmacophore element distance, pharmacophore element C4 / Ligand-pharmacophore element distance, pharmacophore element C5 / Ligand-pharmacophore element distance, pharmacophore element C6 / Ligand-pharmacophore element distance, pharmacophore element C7 / Ligand-pharmacophore element distance, pharmacophore element CA1 / Ligand-pharmacophore element distance, pharmacophore element CA2 / Ligand-pharmacophore element distance, pharmacophore element CA3 / Ligand-pharmacophore element distance, pharmacophore element CA4 / Ligand-pharmacophore element distance, pharmacophore element CA5 / Ligand-pharmacophore element distance, pharmacophore element CA6: Table A4-1; for d(C3,CA1) / d(CA1,N1)2 / d(CA1,O1) / d(CA1,O2) / d(H4,O1) / d(H4,O2) / d(O1,O2): Table A5-1 pharmacophore: distance between elements, S2/S1 region; for d(N2,C2) / d(N2,CA2) / d(O2,H3) / d(O2,N2): Table A5-2 pharmacophore distance, S3/S4 region; for a(C3, CA1, O1) / a(CA1, O1, O2) / a(O1, O2, H4) / a(N1, CA1, O1) b): Table A6-1 pharmacophore angle; for a(N1, CA1, O1) b): Methyl-amino-pyridine compounds; for a(O1, O2, H3) / a(O1, O2, N2) / a(O2, N2, C2) / a(O2, N2, CA2): Table A6-2 pharmacophore angle; for Pharmacophore torsion angle a(C3, CA1, O1, H4) / Pharmacophore torsion angle a(H4, O1, O2, H3) / Pharmacophore torsion angle a(H4, O1, O2, N2) / Pharmacophore torsion angle a(N1, CA1, O1, H4) / Pharmacophore torsion angle a(O1, H4, O2, CA1) / Pharmacophore torsion angle a(O1, O2, N2, C2): Table A7-1; for Pharmacophore torsion angle a(C3, CA1, O1, H4) / Pharmacophore torsion angle a(H4, O1, O2, H3) / Pharmacophore torsion angle a(H4, O1, O2, N2) / Pharmacophore torsion angle a(N1, CA1, O1, H4) / Pharmacophore torsion angle a(O1, H4, O2, CA1) / Pharmacophore torsion angle a(O1, O2, N2, C2) / Pharmacophore torsion angle a(O1, O2, N2, CA2) / Pharmacophore torsion angle a(O1, O2, N2, CA4): between pharmacophore elements of the bound compound; for Pharmacophore torsion angle a(O1, O2, N2, CA2) / Pharmacophore torsion angle a(O1, O2, N2, CA4): Table A7-2
How it was run: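 Inhibitor complexes were obtained by soaking crystals of E. coli-expressed human MASP-2 CCP2-SP constructs, then flash-cooling in liquid nitrogen. Structures solved by molecular replacement (1Q3X search model) from synchrotron diffraction; where several poses existed, only one was analyzed, and nonbonded contacts listed can include H-bonds.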

Chain of MASP-2 CCP2-SP (O00187 445-686): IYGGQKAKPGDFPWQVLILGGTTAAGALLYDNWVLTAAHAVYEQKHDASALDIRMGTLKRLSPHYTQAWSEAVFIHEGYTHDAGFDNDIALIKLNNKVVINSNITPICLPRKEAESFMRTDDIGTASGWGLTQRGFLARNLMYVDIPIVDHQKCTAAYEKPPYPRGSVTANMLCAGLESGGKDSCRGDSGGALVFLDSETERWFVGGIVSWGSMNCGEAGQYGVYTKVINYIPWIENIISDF
Chain of MASP-2 CCP2-SP (O00187 364-432 partner): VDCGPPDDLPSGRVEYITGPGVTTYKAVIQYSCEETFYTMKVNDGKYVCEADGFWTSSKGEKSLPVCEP

Row | Structure (SMILES) | Ligand-pharmacophore element distance, pharmacophore element C2 | Ligand-pharmacophore element distance, pharmacophore element C3 | Ligand-pharmacophore element distance, pharmacophore element C4 | Ligand-pharmacophore element distance, pharmacophore element C5 | Ligand-pharmacophore element distance, pharmacophore element C6 | Ligand-pharmacophore element distance, pharmacophore element C7 | Ligand-pharmacophore element distance, pharmacophore element CA1 | Ligand-pharmacophore element distance, pharmacophore element CA2 | Ligand-pharmacophore element distance, pharmacophore element CA3 | Ligand-pharmacophore element distance, pharmacophore element CA4 | Ligand-pharmacophore element distance, pharmacophore element CA5 | Ligand-pharmacophore element distance, pharmacophore element CA6 | d(C3,CA1) | d(CA1,N1)2 | d(CA1,O1) | d(CA1,O2) | d(H4,O1) | d(H4,O2) | d(O1,O2) | d(N2,C2) | further results
1 | Cc1nc(N)ccc1CNC(=O)C(C)NC(=O)C1CC(c2cccc3ccccc23)CCN1.Cl.Cl (stereo not drawn) [1297_1] | 0.34 | 0.3 | 0 | 0 | 0 | 0 | 0.39 | 0.19 | 0 | 1.24 | 0 | 0 | 2.87 | 1.39 | 4.35 | 3.86 | 4.31 | 3.81 | 3.46 | 1.44 | d(N2,CA2): 5.68; d(O2,H3): 4.23; d(O2,N2): 2.71; a(C3, CA1, O1): 149.59; a(CA1, O1, O2): 107.14; a(O1, O2, H4): 130.08; a(N1, CA1, O1) b): 174.57; a(O1, O2, H3): 144.22; a(O1, O2, N2): 143.88; a(O2, N2, C2): 130.88; a(O2, N2, CA2): 156.06; Pharmacophore torsion angle a(C3, CA1, O1, H4): 30.15; Pharmacophore torsion angle a(H4, O1, O2, H3): 50.42; Pharmacophore torsion angle a(H4, O1, O2, N2): 137.09; Pharmacophore torsion angle a(N1, CA1, O1, H4): 26.85; Pharmacophore torsion angle a(O1, H4, O2, CA1): −85.98; Pharmacophore torsion angle a(O1, O2, N2, C2): 117.40; Pharmacophore torsion angle a(O1, O2, N2, CA2): 131.38; Pharmacophore torsion angle a(O1, O2, N2, CA4): 110.58
2 | Cc1nc(N)ccc1CNC(=O)[C@H](C)NC(=O)[C@H]1C[C@@H](c2cccc3ccccc23)CCN1.Cl.Cl [1297_2] | 0.34 | 0.17 | 0 | 0 | 0 | 0 | 0.47 | 0.22 | 0 | 1.25 | 0 | 0 | 2.88 | 1.37 | 4.48 | 3.69 | 4.41 | 3.62 | 3.57 | 1.47 | d(N2,CA2): 5.78; d(O2,H3): 3.98; d(O2,N2): 2.84; a(C3, CA1, O1): 150.01; a(CA1, O1, O2): 103.93; a(O1, O2, H4): 128.26; a(N1, CA1, O1) b): 174.54; a(O1, O2, H3): 144.48; a(O1, O2, N2): 141.45; a(O2, N2, C2): 127.48; a(O2, N2, CA2): 154.79; Pharmacophore torsion angle a(C3, CA1, O1, H4): 29.10; Pharmacophore torsion angle a(H4, O1, O2, H3): 51.75; Pharmacophore torsion angle a(H4, O1, O2, N2): 141.21; Pharmacophore torsion angle a(N1, CA1, O1, H4): 23.27; Pharmacophore torsion angle a(O1, H4, O2, CA1): −87.24; Pharmacophore torsion angle a(O1, O2, N2, C2): 116.16; Pharmacophore torsion angle a(O1, O2, N2, CA2): 126.84; Pharmacophore torsion angle a(O1, O2, N2, CA4): 106.20
3 | Cc1nc(N)ccc1CNC(=O)C(C)NC(=O)C1CC(c2cccc3ccccc23)CCN1.Cl.Cl (stereo not drawn) [1297_3] | 0.28 | 0.23 | 0 | 0 | 0 | 0 | 0.33 | 0.22 | 0 | 0.94 | 0 | 0 | 2.85 | 1.39 | 4.43 | 3.92 | 4.37 | 3.85 | 3.55 | 1.43 | d(N2,CA2): 5.64; d(O2,H3): 4.22; d(O2,N2): 2.72; a(C3, CA1, O1): 150.32; a(CA1, O1, O2): 107.42; a(O1, O2, H4): 129.38; a(N1, CA1, O1) b): 174.78; a(O1, O2, H3): 143.41; a(O1, O2, N2): 144.44; a(O2, N2, C2): 132.31; a(O2, N2, CA2): 156.50; Pharmacophore torsion angle a(C3, CA1, O1, H4): 28.95; Pharmacophore torsion angle a(H4, O1, O2, H3): 50.29; Pharmacophore torsion angle a(H4, O1, O2, N2): 141.16; Pharmacophore torsion angle a(N1, CA1, O1, H4): 22.83; Pharmacophore torsion angle a(O1, H4, O2, CA1): −86.03; Pharmacophore torsion angle a(O1, O2, N2, C2): 114.36; Pharmacophore torsion angle a(O1, O2, N2, CA2): 129.56; Pharmacophore torsion angle a(O1, O2, N2, CA4): 108.64
